Literature values in patent publication US20250049666A1, “LIQUID COMPOSITION HAVING ENHANCED ANTIMICROBIAL ACTIVITY” (Conopco Inc., d/b/a UNILEVER, priority 2021, published 2025).

pKa	log P (octanol/water)	Compound
acid (pKa = 3.83, log	P = 4.83)	Capryloyl salicylic acid
4.72		CCCCCCCC(=O)O [Caprylic acid]
